Source: PubChem BioAssay (NCI)
Where “and” joins values, the source holds several entries; their conditions need not be identical. Equal entries are not always repeated.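 1) Cells in 96-well plates. 2) Compound, 48 h, 5 concentrations. 3) Linear interpolation between surrounding doses. 4) Unreached endpoint = highest concentration. The concentration for 50% growth inhibition is given as GI50. The concentration for full growth arrest is given as TGI.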

Assays:
Experiment in all cases: DTP human tumour cell line panel, 48 h
SK-OV-3 ovarian = system: SK-OV-3 ovarian
SK-MEL-5 melanoma = system: SK-MEL-5 melanoma
PC-3 prostate = system: PC-3 prostate
SF-539 CNS = system: SF-539 CNS
MDA-MB-435 = system: MDA-MB-435
UO-31 renal = system: UO-31 renal
HOP-62 NSCLC = system: HOP-62 NSCLC
A549 NSCLC = system: A549 NSCLC
MALME-3M melanoma = system: MALME-3M melanoma
SW-620 colon = system: SW-620 colon

Row | SMILES | GI50 (SK-OV-3 ovarian) | TGI (SK-OV-3 ovarian) | GI50 (SK-MEL-5 melanoma) | TGI (SK-MEL-5 melanoma) | GI50 (PC-3 prostate) | TGI (PC-3 prostate) | GI50 (SF-539 CNS) | TGI (SF-539 CNS) | GI50 (MDA-MB-435) | TGI (MDA-MB-435) | GI50 (UO-31 renal) | TGI (UO-31 renal) | GI50 (HOP-62 NSCLC) | TGI (HOP-62 NSCLC) | GI50 (A549 NSCLC) | TGI (A549 NSCLC) | GI50 (MALME-3M melanoma) | TGI (MALME-3M melanoma) | GI50 (SW-620 colon) | TGI (SW-620 colon)
1 | CN1CCN(c2c(F)cc(NC3=C(Cl)C(=O)c4ncccc4C3=O)cc2F)CC1 | 25.2 µM | 72 µM | 15.2 µM | 28.8 µM | 5.87 µM | 21.1 µM | 15.7 µM | 29.1 µM | 1.84 µM | 3.62 µM | 1.52 µM | 2.95 µM | 19.2 µM | 42.9 µM | 18 µM | 35.4 µM | 1.59 µM | 2.97 µM | 1.76 µM | 3.82 µM
2 | Cc1ccc(S(=O)(=O)NCCCCC(N)C(=O)O)cc1 (configuration not stated) | – | > 100 µM | – | > 100 µM | – | > 100 µM | – | > 100 µM | – | > 100 µM | – | > 100 µM | – | > 100 µM | – | > 100 µM | – | > 100 µM | – | > 100 µM
3 | OCC1CC[N-]CC1.OCC1CC[N-]CC1.[Cl][Pt+2]([Cl])([Cl])[Cl] | 36.9 µM | – | 34.5 µM | – | – | 73 µM | 41.9 µM | – | 24.4 µM | 64.9 µM | 31.2 µM | 89.9 µM | 33.1 µM | – | 52.7 µM | – | 36.4 µM | – | 23 µM | –
4 | Cc1cc(Br)c(NC(=O)c2c(-c3c(Cl)cccc3Cl)noc2C)c(Br)c1 | > 100 µM | > 100 µM | > 100 µM | > 100 µM | > 100 µM | > 100 µM | > 100 µM | > 100 µM | > 100 µM | > 100 µM | > 100 µM | > 100 µM | 30.8 µM | > 100 µM | > 100 µM | > 100 µM | > 100 µM | > 100 µM | > 100 µM | > 100 µM
5 | Cc1cnc(C(=O)NNc2nc3sc4c(c3c(=O)[nH]2)C(C)CCC4)cn1 (configuration not stated) | 0.524 µM | 11.1 µM | 1.04 µM | 3.36 µM | 2.08 µM | 66.6 µM | 0.918 µM | 10.2 µM | 3.25 µM | 26.6 µM | 0.414 µM | 3.64 µM | 0.273 µM | 17.5 µM | 1.23 µM | 14 µM | 1.72 µM | 12.2 µM | 2.62 µM | 79.2 µM
6 | CC[C@H](C)[C@H](NC(=O)[C@H]1CCCCN1C)C(=O)N(C)[C@H](C[C@@H](OC(C)=O)c1nc(C(=O)NC23CC(C(=O)OC)(C2)C3)cs1)C(C)C | 0.0022 µM and 0.00357 µM | > 32.5 µM | 0.000748 µM and 0.00325 µM | 0.0299 µM and 0.0384 µM | 0.00129 µM and 0.00325 µM | > 32.5 µM | 0.000553 µM and 0.00325 µM | 0.00779 µM and 0.00601 µM | 0.000137 µM and < 0.00325 µM | 0.00104 µM and < 0.00325 µM | 0.0109 µM and 0.00564 µM | > 32.5 µM | 0.000538 µM and 0.00325 µM | – | 0.00378 µM and 0.00325 µM | > 32.5 µM | 0.00756 µM and 0.0305 µM | > 32.5 µM | 0.000424 µM and 0.00325 µM | > 32.5 µM
7 | CCO/C=C1\SC(=S)N(c2ccc(OCC)cc2)C1=O | – | > 100 µM | – | > 100 µM | – | > 100 µM | – | > 100 µM | – | > 100 µM | – | > 100 µM | – | > 100 µM | – | > 100 µM | – | > 100 µM | – | > 100 µM
8 | C=C(CN1CCc2[nH]c3ccc(F)cc3c2C1)c1ccc(C(=O)Nc2ccccc2N)cc1 | 2.92 µM | 11.8 µM | 0.502 µM | 1.83 µM | 4.32 µM | 52.3 µM | 0.38 µM | 2.32 µM | 1.6 µM | 4.07 µM | 0.997 µM | 4.14 µM | 0.605 µM | 8.38 µM | 1.17 µM | 9.17 µM | 0.389 µM | 3.1 µM | 0.715 µM | 15.6 µM
9 | OCCCCC#Cc1ccccc1C#Cc1cccc(C(F)(F)F)c1 | 19.7 µM | 35.3 µM | 17.8 µM | 32.7 µM | 18.2 µM | 33.7 µM | 20.1 µM | 38 µM | 16.9 µM | 31.6 µM | 17.2 µM | 31.6 µM | 16.9 µM | 33.3 µM | 15.1 µM | 28.6 µM | 26 µM | 48.5 µM | 16.9 µM | 37 µM
10 | Cc1noc(NC(=O)Nc2ccccc2F)c1C#N | – | > 100 µM | – | > 100 µM | – | > 41.3 µM | – | > 100 µM | – | > 100 µM | – | 4.42 µM | – | > 100 µM | – | > 52.1 µM | – | > 51.9 µM | – | > 100 µM
11 | CCCCCC/C=C\CCCCCCCCC(=O)c1cccc(OC)c1OC | – | > 100 µM | – | 60.9 µM | – | > 100 µM | – | > 100 µM | – | > 100 µM | – | > 100 µM | – | > 100 µM | – | > 100 µM | – | > 100 µM | – | > 100 µM
12 | CCCCCCCCCCCC[C@@H](O)[C@H]1CC[C@H]([C@H](O)CC[C@H](O)[C@@H]2CC[C@@H](CCCCCCCC3=C[C@H](C)OC3=O)O2)O1 | – | > 50 µM | 1.3 µM | 7.93 µM and > 50 µM | 3.3 µM | > 50 µM | – | > 50 µM | 1.49 µM | > 50 µM | 2.51 µM | > 50 µM | – | > 50 µM | 2.2 µM | > 50 µM | – | > 50 µM | 3.23 µM | > 50 µM
